# Test results reported in patent US11957687B2 (REGENERON PHARMACEUTICALS, INC., priority 2019, dated 2024).
# Biological target: HSD17B13 (Homo sapiens (Human), UniProt Q7Z5P4)
# Assay: HSD17B13 enzymatic inhibition assay (150 nM or 50 nM HSD17B13)
# Assay type: biochemical
# Conditions: 50 nM HSD17B13; read-out: Inhibition of 50 nM of HSD17B13 IC50
# HSD17B13, sequence (Q7Z5P4 other isoform, or with tags, fused parts or gaps): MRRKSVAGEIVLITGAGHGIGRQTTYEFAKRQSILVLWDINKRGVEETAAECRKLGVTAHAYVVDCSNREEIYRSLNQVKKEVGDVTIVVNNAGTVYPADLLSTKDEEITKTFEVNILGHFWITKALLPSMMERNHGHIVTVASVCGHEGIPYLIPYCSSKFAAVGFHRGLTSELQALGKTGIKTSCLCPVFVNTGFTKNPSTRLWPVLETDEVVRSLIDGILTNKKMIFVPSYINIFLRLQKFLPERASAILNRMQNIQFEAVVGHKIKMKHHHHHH
row,SMILES,IC50 [nM]
1,"O=C(NC1c2ccccc2Oc2cc(C3COC3)ccc21)c1ccc(C(F)(F)F)[nH]c1=O (stereo not drawn) [Compound 488, N-(3-(oxetan-3-yl)-9H-xanthen-9-yl)-2-oxo-6-(trifluoromethyl)-1,2-dihydropyridine-3-carboxamide]",110
2,"O=C(NC1c2ccccc2Oc2ccc(C3COC3)cc21)c1ccc(C(F)(F)F)[nH]c1=O (stereo not drawn) [Compound 489, N-(2-(oxetan-3-yl)-9H-xanthen-9-yl)-2-oxo-6-(trifluoromethyl)-1,2-dihydropyridine-3-carboxamide]",230
3,"Cc1ccc(C(C(=O)Nc2ccc(C(F)(F)F)[nH]c2=O)c2ccc(C)cc2)cc1 [Compound 492, N-(2-oxo-6-(trifluoromethyl)-1,2-dihydropyridin-3-yl)-2,2-di-p-tolylacetamide]",> 10000
4,"Cc1ccc2c(c1)Oc1cc(C)ccc1C2NC(=O)c1cc(-c2cc[nH]c(=O)c2)c(C(F)(F)F)[nH]c1=O [Compound 494, N-(3,6-dimethyl-9H-xanthen-9-yl)-2′,6-dioxo-2-(trifluoromethyl)-1,1′,2′,6-tetrahydro-[3,4′-bipyridine]-5-carboxamide]",20
5,"Cc1ccc2c(c1)Oc1cc(C)ccc1C2NC(=O)c1cc(-c2cccnc2)c(C(F)(F)F)[nH]c1=O [Compound 496, N-(3,6-dimethyl-9H-xanthen-9-yl)-6-oxo-2-(trifluoromethyl)-1,6-dihydro-[3,3′-bipyridine]-5-carboxamide]",20
6,"Cc1ccc2c(c1)Oc1cc(C)ccc1C2NC(=O)c1cc(-c2ccc(=O)[nH]c2)c(C(F)(F)F)[nH]c1=O [Compound 497, N-(3,6-dimethyl-9H-xanthen-9-yl)-6,6′-dioxo-2-(trifluoromethyl)-1,1′,6,6′-tetrahydro-[3,3′-bipyridine]-5-carboxamide]",30
7,"Cc1ccc2c(c1)Oc1cccc(C)c1C2NC(=O)c1cc(Cc2ccccc2)c(C(F)(F)F)[nH]c1=O (stereo not drawn) [Compound 502, 5-benzyl-N-(1,6-dimethyl-9H-xanthen-9-yl)-2-oxo-6-(trifluoromethyl)-1,2-dihydropyridine-3-carboxamide]",260
8,"Cc1ccc2c(c1)Oc1cccc(C)c1C2NC(=O)c1cc(-c2ccncc2)c(C(F)(F)F)[nH]c1=O (stereo not drawn) [Compound 503, N-(1,6-dimethyl-9H-xanthen-9-yl)-6-oxo-2-(trifluoromethyl)-1,6-dihydro-[3,4′-bipyridine]-5-carboxamide]",230
9,"Cc1ccc2c(c1)Oc1cc(C)ccc1C2NC(=O)c1cc(C2=CCCCC2)c(C(F)(F)F)[nH]c1=O [Compound 505, 5-(cyclohex-1-en-1-yl)-N-(3,6-dimethyl-9H-xanthen-9-yl)-2-oxo-6-(trifluoromethyl)-1,2-dihydropyridine-3-carboxamide]",80
10,"CC(C)(C)OC(=O)Nc1ccc(CSc2ncc(C(=O)NC3c4ccc(Cl)cc4Oc4cc(Cl)ccc43)c(=O)[nH]2)cc1 [Compound 513, tert-butyl (4-(((5-((3,6-dichloro-9H-xanthen-9-yl)carbamoyl)-6-oxo-1,6-dihydropyrimidin-2-yl)thio)methyl)phenyl)carbamate]",920
11,"Cc1ccc2c(c1)Oc1cc(C)ccc1C2NC(=O)c1cc(Oc2ccccc2)c(C(F)(F)F)[nH]c1=O [Compound 514, N-(3,6-dimethyl-9H-xanthen-9-yl)-2-oxo-5-phenoxy-6-(trifluoromethyl)-1,2-dihydropyridine-3-carboxamide]",20
12,"Cc1ccc2c(c1)Sc1cc(C)ccc1C2NC(=O)c1cc(C)c(C(F)(F)F)[nH]c1=O [Compound 515, N-(3,6-dimethyl-9H-thioxanthen-9-yl)-5-methyl-2-oxo-6-(trifluoromethyl)-1,2-dihydropyridine-3-carboxamide]",30
13,"Cc1ccc2c(c1)Oc1cc(C)ccc1C2NC(=O)c1cc(C2=CCNCC2)c(C(F)(F)F)[nH]c1=O [Compound 516, N-(3,6-dimethyl-9H-xanthen-9-yl)-6-oxo-2-(trifluoromethyl)-1,1′,2′,3′,6,6′-hexahydro-[3,4′-bipyridine]-5-carboxamide]",200

# Next, values leading:
row,IC50 [nM],SMILES
1,4980,"CN1CC(c2ccc3c(c2)Oc2ccccc2C3NC(=O)c2ccc(C(F)(F)F)[nH]c2=O)C1 (stereo not drawn) [Compound 484, N-(3-(1-methylazetidin-3-yl)-9H-xanthen-9-yl)-2-oxo-6-(trifluoromethyl)-1,2-dihydropyridine-3-carboxamide]"
2,> 10000,"Cc1ccc2c(c1)Oc1cc(C)ccc1C2NC(=O)c1ccc(C(C)C)[nH]c1=O [Compound 485, N-(3,6-dimethyl-9H-xanthen-9-yl)-6-isopropyl-2-oxo-1,2-dihydropyridine-3-carboxamide]"
3,> 10000,"Cc1ccc2c(c1)Oc1cc(C)ccc1C2NC(=O)c1ccc(C(C)(C)C)[nH]c1=O [Compound 486, 6-(tert-butyl)-N-(3,6-dimethyl-9H-xanthen-9-yl)-2-oxo-1,2-dihydropyridine-3-carboxamide]"
4,> 10000,"Cc1ccc2c(c1)Oc1cc(C)ccc1C2NC(=O)c1ccc(C(C)(C)C)nc1Cl [Compound 487, 6-(tert-butyl)-2-chloro-N-(3,6-dimethyl-9H-xanthen-9-yl)nicotinamide]"
5,90,"Cc1ccc2c(c1)S(=O)(=O)c1cc(C)ccc1C2NC(=O)c1cc(-c2ccncc2)c(C(F)(F)F)[nH]c1=O [Compound 493, N-(3,6-dimethyl-10,10-dioxido-9H-thioxanthen-9-yl)-6-oxo-2-(trifluoromethyl)-1,6-dihydro-[3,4′-bipyridine]-5-carboxamide]"
6,20,"COc1cc(-c2cc(C(=O)NC3c4ccc(C)cc4Oc4cc(C)ccc43)c(=O)[nH]c2C(F)(F)F)ccn1 [Compound 498, N-(3,6-dimethyl-9H-xanthen-9-yl)-2′-methoxy-6-oxo-2-(trifluoromethyl)-1,6-dihydro-[3,4′-bipyridine]-5-carboxamide]"
7,90,"Cc1ccc2c(c1)S(=O)(=O)c1cc(C)ccc1C2NC(=O)c1cc(-c2ncccn2)c(C(F)(F)F)[nH]c1=O [Compound 506, N-(3,6-dimethyl-10,10-dioxido-9H-thioxanthen-9-yl)-2-oxo-5-(pyrimidin-2-yl)-6-(trifluoromethyl)-1,2-dihydropyridine-3-carboxamide]"
8,40,"Cc1ccc2c(c1)Sc1cc(C)ccc1C2NC(=O)c1cc(-c2ncccn2)c(C(F)(F)F)[nH]c1=O [Compound 507, N-(3,6-dimethyl-9H-thioxanthen-9-yl)-2-oxo-5-(pyrimidin-2-yl)-6-(trifluoromethyl)-1,2-dihydropyridine-3-carboxamide]"
9,90,"CCN1CCN(c2cc(C(=O)NC3c4ccc(C)cc4Oc4cc(C)ccc43)c(=O)[nH]c2C(F)(F)F)CC1 [Compound 512, N-(3,6-dimethyl-9H-xanthen-9-yl)-5-(4-ethylpiperazin-1-yl)-2-oxo-6-(trifluoromethyl)-1,2-dihydropyridine-3-carboxamide]"
10,570,"O=C(NC1c2ccc(Cl)cc2Oc2cc(Cl)ccc21)c1cnc(COc2ccc(C(F)(F)F)cc2)[nH]c1=O [Compound 517, N-(3,6-dichloro-9H-xanthen-9-yl)-6-oxo-2-((4-(trifluoromethyl)phenoxy)methyl)-1,6-dihydropyrimidine-5-carboxamide]"
11,560,"Cc1ccc2c(c1)NCCC2NC(=O)c1ccc(C(F)(F)F)[nH]c1=O (stereo not drawn) [Compound 518, N-(7-methyl-1,2,3,4-tetrahydroquinolin-4-yl)-2-oxo-6-(trifluoromethyl)-1,2-dihydropyridine-3-carboxamide]"
